From patent US20260327255A1, “LIGAND-DIRECTED COVALENT MODIFICATION OF AMINO ACID SIDE CHAINS USING CYCLIC IMINE MANNICH ELECTROPHILES” (Purdue Research Foundation, priority 2022, published 2026)
Changes are numbered by the printed parent chain. Where a SMILES comes first, the peptide text is derived from it. [ ]: non-standard residue; d: D form. The star is where a group is joined. Benzoyl(4-OPh) = O=C(c1ccc(Oc2ccccc2)cc1)*; Lys(Et2) = CCN(CC)CCCC[C@H](N)C(=O)O; Gly(cPent) = N[C@H](C(=O)O)C1CCCC1

Key:
[1] = target: T1, mutant CBX8 (Y39F) (Homo sapiens, UniProt Q9HC52, Y39F); assay: Time-dependent fluorescence polarization displacement assay, CBX8 Y39F; assay type: binding
T1 construct: Time dependent fluorescence polarization displacement assays of indicated chromodomains with P2
T1 sequence (Q9HC52 11-69 Y39F limits assumed): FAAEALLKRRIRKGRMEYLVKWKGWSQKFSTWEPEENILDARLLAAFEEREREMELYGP
Method: (A) The fraction of labeled protein as determined by UV integration on reverse phase HPLC. CBX8 ChD and P2 were incubated at 10 μM each for 16 hours at 37° C. UV absorption measured at 215 nm. (B) Mass spectra of CBX8 ChD treated overnight with inhibitor P2 (top, red) and control CBX8 ChD (bottom, green). Observed masses are shown (expected average mass for CBX8 ChD=8792 Da). The observed mass difference (895 Da) corresponds to the expected mass change of 901 Da. (C) Time dependent fluorescence polarization displacement assays of indicated chromodomains with P2. Assays were conducted using SW2_123 as an FP probe (FIG. S15) at 100 nM. All proteins were used at 2 μM in PBS (pH 7), 0.02% Tween 20. Error bars represent s.d.
To validate labeling of the targeted tyrosine residue (Y39), this amino acid was mutated to phenylalanine, which is structurally similar but lacks reactivity to the cyclic imine. […] Similarly, for CBX2 ChD, no change in apparent affinity was observed over time in the FP assay (FIG. 13C), and no labeled protein was detected by MS.

[2] = test system: HOXA9 gene expression in THP1 cells; assay: qRT-PCR analysis of HOXA9 gene expression in THP1 cells; assay type: cell-based
Method: FIG. 14 Cellular activity of covalent, cyclic imine inhibitors to CBX8. qRT-PCR analysis of HOXA9 gene expression in THP1 cells after 48 h of compound treatment at the indicated dose. N=3. Error bars represent s.d. Statistical significance determined by Student's T test. *=p<0.05, **=p<0.01, ***=p<0.001, ****=p<0.0001.
FIG. 15 Cellular activity of covalent, cyclic imine inhibitors to CBX8. (A) qRT-PCR analysis of HOXA9 gene expression in THP1 cells after 48 h of compound treatment at the indicated dose. N=3. Error bars represent s.d. Statistical significance calculated using student's t-test. **=p<0.01, ****=p<0.0001. (B) qRT-PCR analysis of HOXA9 gene expression in THP1 cells treated with increasing doses of compound for 48 h. N=3. Error bars represent s.d.
Imine inhibitors were assessed for improved cellular activity using a disease-relevant cell model. […] Using this same model, we compared the covalent inhibitors with non-covalent inhibitor SW2_110A in THP1 cell lines. […] The two optimal inhibitors P1bP and P2 were subsequently tested for dose-dependency in this cellular assay. Dose curves indicate that these covalent inhibitors have 30 to 100-fold improvement of cellular activity compared to the non-covalent inhibitor (FIG. 15B).

[3] = Stability of cyclic imine inhibitor P1b; assay type: physicochemical
Method: The sample was split, and one portion was further reduced with sodium cyanoborohydride. LC/MS: UV traces, low resolution mass spectrum. […] Stability was similarly assayed with 24-hour incubation in either 100 mM HCl or 100 mM NaOH.

[4] = target: T2, wild-type CBX8 chromodomain (Homo sapiens, UniProt Q9HC52); assay: Time-dependent fluorescence polarization displacement assay, CBX8; assay type: binding; details: for time-dependent change of potency (IC50): further incubation; for IC50 without additional incubation time (in words): no additional incubation
T2 construct: recombinant CBX8 chromodomain (ChD)
T2 sequence (Q9HC52 11-69 limits assumed): T1 sequence (Q9HC52 11-69 Y39F limits assumed) with F29Y
Method: (A) The fraction of labeled protein as determined by UV integration on reverse phase HPLC. CBX8 ChD and P2 were incubated at 10 μM each for 16 hours at 37° C. UV absorption measured at 215 nm. (B) Mass spectra of CBX8 ChD treated overnight with inhibitor P2 (top, red) and control CBX8 ChD (bottom, green). […] (C) Time dependent fluorescence polarization displacement assays of indicated chromodomains with P2. Assays were conducted using SW2_123 as an FP probe (FIG. S15) at 100 nM. All proteins were used at 2 μM in PBS (pH 7), 0.02% Tween 20. Error bars represent s.d.
A fluorescence polarization (FP) displacement assay was used to evaluate the covalent binding of cyclic imine warhead containing inhibitors.
To validate labeling of the targeted tyrosine residue (Y39), this amino acid was mutated to phenylalanine, which is structurally similar but lacks reactivity to the cyclic imine.

[5] = test system: CBX8 binding to chromatin; CBX8-mediated gene expression; details: MLL-AF9 transformed leukemia; cited from earlier work
[6] = target: T3, CBX8 ChD (Homo sapiens, UniProt Q9HC52); details: cited from earlier work
T3 construct: recombinant CBX8 chromodomain (ChD)
T3 sequence (Q9HC52 11-69 limits assumed): T1 sequence (Q9HC52 11-69 Y39F limits assumed) with F29Y

[7] = target: T4, endogenous CBX8 (Homo sapiens, UniProt Q9HC52); assay: In-gel fluorescence labeling in HEK293T cell lysates; assay type: binding; details: ~20 μM, 20 eq competitor with P2
T4 sequence (Q9HC52 1-389): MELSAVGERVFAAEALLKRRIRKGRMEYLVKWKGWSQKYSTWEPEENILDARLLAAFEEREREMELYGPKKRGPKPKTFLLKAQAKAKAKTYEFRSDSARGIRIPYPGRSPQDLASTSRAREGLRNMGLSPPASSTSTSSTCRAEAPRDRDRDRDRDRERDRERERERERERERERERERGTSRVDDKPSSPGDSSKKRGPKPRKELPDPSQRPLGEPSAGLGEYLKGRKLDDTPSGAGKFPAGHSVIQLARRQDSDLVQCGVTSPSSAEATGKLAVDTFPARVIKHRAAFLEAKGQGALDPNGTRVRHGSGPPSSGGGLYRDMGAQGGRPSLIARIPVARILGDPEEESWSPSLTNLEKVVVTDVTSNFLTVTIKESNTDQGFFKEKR
Method: After incubation of the inhibitor P2 at 1 μM in HEK293T cell lysates for 1 h at 37° C., click chemistry was conducted to conjugate TAMRA-azide to the C-terminal alkyne of P2 prior to SDS-PAGE.

Row | Structure (SMILES) | IC50 [1] | reduction of HOXA9 gene expression, 10 μM P1b vs 100 μM SW2_110A ([2]; 10 μM P1b vs 100 μM SW2_110A) | reduction of HOXA9 expression versus non-covalent inhibitor ([2]; THP1, 48 h, vs SW2_110A) | degradation ([3]; 100 mM HCl, 100 mM NaOH and neutral PBS, 96 h, room temperature) | conversion of imine to amine on NaBH3CN after 24-hour incubation in PBS ([3]; 24 h PBS, then sodium cyanoborohydride (10 eq.)) | time-dependent change of potency (IC50) [4] | IC50 without additional incubation time (in words) [4] | CBX8-mediated gene expression [5] | inhibition of CBX8 binding to chromatin [5] | selectivity over CBX2 ([6]; CBX8 over CBX2) | Kd [6] | selectivity for CBX8 over CBX4, CBX6, and CBX7 ([6]; in words) | effect on P2 protein labeling on co-incubation [7]
1 | CC[C@H](C)[C@H](NC(=O)[C@@H](NC(=O)c1ccc(Oc2ccccc2)cc1)C1CCCC1)C(=O)N[C@@H](CCCCN(CC)CCCCCCN1CCN=CC1=O)C(=O)N[C@@H](CO)C(N)=O [Compound P1b] | 7.3 µM | reduced gene expression to a similar extent as 100 μM SW2_110A | most effective at reducing HOXA9 gene expression | no significant degradation | full conversion of imine to amine | time-dependent increase of potency | comparable IC50 values | – | – | – | – | – | –
2 | CC[C@H](C)[C@H](NC(=O)[C@@H](NC(=O)c1ccc(Oc2ccccc2)cc1)C1CCCC1)C(=O)N[C@@H](CCCCN(CC)CC)C(=O)N[C@@H](CO)C(N)=O [SW2_110A] ({Benzoyl(4-OPh)}-[Gly(cPent)]I[Lys(Et2)]S-NH2) | – | – | – | – | – | did not | comparable IC50 values | reduces CBX8-mediated gene expression | inhibits CBX8 binding to chromatin | 6 fold | 0.8 µM | high selectivity | protein labeling was reduced
